For assay [1], the target named is T1, human TRPV1 receptor (hTRPV1) (Homo sapiens (Human), UniProt Q8NER1). Description: Acid activation assay (pH 5.0, FLIPR intracellular Ca2+). It counts as cell-based. The note with it: Table 1, 37.5 μM antagonist, percentage of the maximal pH 5.0-induced response remaining; for remaining activity at 37.5 µM: read-out: hTRPV1 H+ (max % remain). A digest of the protocol: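 1321N1 astrocytoma cells stably expressing homomeric hTRPV1, loaded with Calcium-4 dye 90–120 min at 25 °C. Compounds, 12-point half-log range, added 3 min before pH 5.0 DPBS/MES challenge; intracellular Ca2+ read by FLIPR fluorescence.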
T1 sequence (Q8NER1 whole entry): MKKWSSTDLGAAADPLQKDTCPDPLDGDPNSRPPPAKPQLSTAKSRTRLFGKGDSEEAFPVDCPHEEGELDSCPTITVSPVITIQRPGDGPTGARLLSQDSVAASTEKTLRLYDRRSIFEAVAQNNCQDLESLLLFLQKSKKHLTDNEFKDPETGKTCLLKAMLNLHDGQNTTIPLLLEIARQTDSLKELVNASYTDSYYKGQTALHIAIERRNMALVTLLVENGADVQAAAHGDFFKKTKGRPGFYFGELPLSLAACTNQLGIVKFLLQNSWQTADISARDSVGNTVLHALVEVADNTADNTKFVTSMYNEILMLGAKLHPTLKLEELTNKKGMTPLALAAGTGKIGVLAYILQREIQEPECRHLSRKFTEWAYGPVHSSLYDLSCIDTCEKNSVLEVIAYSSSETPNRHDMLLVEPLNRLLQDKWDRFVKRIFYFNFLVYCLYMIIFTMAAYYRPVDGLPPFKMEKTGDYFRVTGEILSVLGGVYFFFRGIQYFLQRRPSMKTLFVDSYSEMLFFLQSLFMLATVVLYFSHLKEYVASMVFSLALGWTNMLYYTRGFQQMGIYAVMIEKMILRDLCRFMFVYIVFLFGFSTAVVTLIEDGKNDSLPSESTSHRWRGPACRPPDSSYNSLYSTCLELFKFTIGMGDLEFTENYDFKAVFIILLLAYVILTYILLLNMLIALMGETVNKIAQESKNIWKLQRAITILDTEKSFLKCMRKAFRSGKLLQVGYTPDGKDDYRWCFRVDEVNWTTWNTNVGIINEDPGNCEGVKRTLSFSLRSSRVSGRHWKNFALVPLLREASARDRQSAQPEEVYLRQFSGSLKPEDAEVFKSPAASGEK

Assay [2] addresses T1, human TRPV1 receptor (hTRPV1). The assay can be described thus: Capsaicin activation assay (FLIPR intracellular Ca2+). The note with it: Table 1; inhibition of capsaicin-induced intracellular Ca2+ increase, HEK293 cells expressing human TRPV1; read-out: hTRPV1 cap IC50. It counts as cell-based. The protocol: Dulbecco's modified Eagle medium (D-MEM) (with 4.5 mg/mL glucose) and fetal bovine serum were obtained from Hyclone Laboratories, Inc. (Logan, Utah). Dulbecco's phosphate-buffered saline (D-PBS) (with 1 mg/mL glucose and 3.6 mg/l Na pyruvate, without phenol red), L-glutamine, hygromycin B, and Lipofectamine® were obtained from Life Technologies (Grand Island, N.Y.). G418 sulfate was obtained from Calbiochem-Novabiochem Corp. (San Diego, Calif.). Capsaicin (8-methyl-N-vanillyl-6-nonenamide) was obtained from Sigma-Aldrich, Co. (St. Louis, Mo.). Fluo-4 AM (N-[4-[6-[(acetyloxy)methoxy]-2,7-difluoro-3-oxo-3H-xanthen-9-yl]-2-[2-[2-[bis[2-[(acetyloxy)methoxy]-2-oxyethyl]amino]-5-methyl phenoxy]ethoxy]phenyl]-N-[2-[(acetyloxy)methoxy]-2-oxyethyl]-glycine, (acetyloxy)methyl ester) was purchased from Molecular Probes (Eugene, Oreg.). […]
The functional activity of compounds at the TRPV1 receptor was determined by measurement of intracellular Ca^2+ levels ([Ca^2+]i) using the Fluorescence Imaging Plate Reader (FLIPR)^TETRA®. All compounds were tested over a 12-point one-third-log concentration range. Compound stocks, 10 mM, were prepared in DMSO, and diluted serially across a 384-well plate using a Bravo BenchCel workstation (Agilent Technologies, Santa Clara, Calif.). A stock concentration of capsaicin (10 mM) was made in DMSO, and diluted in D-PBS to a final concentration of 200 nM (4×). On the day prior to the experiment, recombinant HEK293 cells that stably express human TRPV1 were removed from tissue culture flasks and plated in growth medium into black-walled clear-bottom 384-well Biocoat™ poly-D-lysine assay plates (BD Biosciences, Bedford, Mass.) using a Multidrop® dispenser (ThermoScientific, Waltham, Mass.). On the day of the experiment, growth medium was removed, and the no-wash FLIPR® Calcium-4 dye (λEX=470-495 nm, λEM=515-575 nm; Molecular Devices, Sunnyvale, Calif.) was added to each well using the Multidrop® dispenser. Cells were incubated for 90-120 minutes in the dark at room temperature. Test compounds were added to the cells 3 minutes prior to the addition of 200 nM capsaicin (4×), and the final assay volume was 80 μL. Fluorescence readings were made at 1 to 5 second intervals over the course of the experimental run. The peak increase in relative fluorescence units (minus baseline) was calculated, and expressed as a percentage of the 50 nM capsaicin (control) response.

pIC50: −log10 of the molar value. Where only a bound is given, the exact number is not on record here.

The term pIC50 denotes the negative decadic logarithm of the IC50, by convention in mol/L. On to `O=C(Nc1ccc2c(c1)NC(=O)N(CCO)C2)N[C@@H]1CC[C@@H](c2cccc(F)c2)C1` [Example 115, 1-[(1R,3R)-3-(3-fluorophenyl)cyclopentyl]-3-[3-(2-hydroxyethyl)-2-oxo-1,2,3,4-tetrahydroquinazolin-7-yl]urea], for which, in assay [1], the remaining activity at 37.5 µM is 47%. The pIC50 in assay [2] is 6.19.

`Cn1c(=O)ccc2c(NC(=O)N[C@H]3CC[C@@H](c4cccc(F)c4)C3)cccc21` [Example 79, 1-[(1S,3R)-3-(3-fluorophenyl)cyclopentyl]-3-(1-methyl-2-oxo-1,2-dihydroquinolin-5-yl)urea]: the remaining activity at 37.5 µM in assay [1] worked out at 75%. Further, in assay [2], the pIC50 was 7.96.

On to `O=C(Nc1ccc2c(c1)NC(=O)N(CCO)C2)N[C@H]1CC[C@@H](c2cccc(F)c2)C1` [Example 116, 1-[(1S,3R)-3-(3-fluorophenyl)cyclopentyl]-3-[3-(2-hydroxyethyl)-2-oxo-1,2,3,4-tetrahydroquinazolin-7-yl]urea], for which the remaining activity at 37.5 µM in assay [1] was found to be 48%. In assay [2], the pIC50 was 6.03.

Take `O=C(Nc1cccc2c1C[C@H](O)C2)N[C@H]1C[C@H](c2ccccc2)C1` [Example 59, 1-[(2R)-2-hydroxy-2,3-dihydro-1H-inden-4-yl]-3-(trans-3-phenylcyclobutyl)urea]: in assay [1], the remaining activity at 37.5 µM was found to be 79%. Besides, the negative logarithm of the IC50 (pIC50) in assay [2] is 6.36.

For the compound `Cn1c(=O)ccc2c(NC(=O)N[C@H]3CC[C@@H](c4ccccc4)C3)cccc21` [Example 50, 1-(1-methyl-2-oxo-1,2-dihydroquinolin-5-yl)-3-((1S,3R)-3-phenylcyclopentyl)urea], the remaining activity at 37.5 µM in assay [1] turned out to be 59%. The negative-log IC50 (pIC50) in assay [2] was 7.11.

Take `O=C1CCc2ccc(NC(=O)N[C@H]3CC[C@H](c4ccccc4)C3)cc2N1` [Example 12, 1-(2-oxo-1,2,3,4-tetrahydroquinolin-7-yl)-3-[(1S,3S)-3-phenylcyclopentyl]urea]: the remaining activity at 37.5 µM in assay [1] came out at 65%. In assay [2], the pIC50 was 6.68.

On to `CN1C(=O)CCc2c(NC(=O)N[C@H]3CC[C@@H](c4ccccc4)C3)cccc21` [Example 95, 1-(1-methyl-2-oxo-1,2,3,4-tetrahydroquinolin-5-yl)-3-[(1S,3R)-3-phenylcyclopentyl]urea], for which the remaining activity at 37.5 µM in assay [1] stood at 34%. In addition, the negative logarithm of the IC50 (pIC50) in assay [2] was 7.24.

With `O=C(Nc1cccc2c1C[C@@H](O)C2)N[C@H]1CC[C@@H](c2ccccc2)C1` [Example 23, 1-[(2S)-2-hydroxy-2,3-dihydro-1H-inden-4-yl]-3-[(1S,3R)-3-phenylcyclopentyl]urea], the remaining activity at 37.5 µM in assay [1] stood at 88%. Besides, the pIC50 in assay [2] is 6.86.

As to `O=C(Nc1cccc2[nH]ncc12)NC1CCCC(c2ccc(C(F)(F)F)cc2)C1` (centres unmarked) [Example 30, 1-(1H-indazol-4-yl)-3-{3-[4-(trifluoromethyl)phenyl]cyclohexyl}urea], in assay [1], the remaining activity at 37.5 µM was determined as 26%. The pIC50 in assay [2] was 5.98.

With `Cn1ncc2c(NC(=O)N[C@H]3CC[C@@H](c4ccccc4)C3)cccc21` [Example 25, 1-(1-methyl-1H-indazol-4-yl)-3-[(1S,3R)-3-phenylcyclopentyl]urea], the remaining activity at 37.5 µM in assay [1] worked out at 46%. The pIC50 in assay [2] is 6.20.

With `CC(C)(C)c1ccc(C2CCC(NC(=O)Nc3cccc4[nH]ncc34)C2)cc1` (centres unmarked) [Example 37, 1-[3-(4-tert-butylphenyl)cyclopentyl]-3-(1H-indazol-4-yl)urea], in assay [1], the remaining activity at 37.5 µM amounted to 6%. The pIC50 in assay [2] is 6.37.

For `CN1C(=O)CCc2ccc(NC(=O)N[C@@H]3CC[C@@H](c4ccccc4F)C3)cc21` [Example 109, 1-[(1R,3R)-3-(2-fluorophenyl)cyclopentyl]-3-(1-methyl-2-oxo-1,2,3,4-tetrahydroquinolin-7-yl)urea], the remaining activity at 37.5 µM in assay [1] was found to be 76%. The pIC50 in assay [2] is under 4.43.

With `O=C(Nc1cccc2[nH]ncc12)N[C@H]1C[C@H](c2ccccc2)C1` [Example 57, 1-(1H-indazol-4-yl)-3-(trans-3-phenylcyclobutyl)urea], in assay [1], the remaining activity at 37.5 µM is 4%. For the same compound, the pIC50 in assay [2] was 7.19.

For the compound `O=C(Nc1cccc2[nH]ncc12)NC1CC[C@H](c2ccc(F)cc2)C1` (stereo partly drawn) [Example 45, 1-[(3S)-3-(4-fluorophenyl)cyclopentyl]-3-(1H-indazol-4-yl)urea], the remaining activity at 37.5 µM in assay [1] is 9%. In addition, the negative logarithm of the IC50 (pIC50) in assay [2] was 7.59.

With `COCCN(C)C1Cc2ccc(NC(=O)N[C@@H]3CC[C@H](c4ccccc4)C3)cc2NC1=O` (stereo partly drawn) [Example 144, 1-{3-[(2-methoxyethyl)(methyl)amino]-2-oxo-1,2,3,4-tetrahydroquinolin-7-yl}-3-[(1R,3S)-3-phenylcyclopentyl]urea], the remaining activity at 37.5 µM in assay [1] was 62%. The pIC50 in assay [2] was under 4.43.

Turning to `Cc1cc2c(NC(=O)N[C@H]3CC[C@H](c4cccc(F)c4)C3)c(F)ccc2cn1` [Example 74, 1-(6-fluoro-3-methylisoquinolin-5-yl)-3-[(1S,3S)-3-(3-fluorophenyl)cyclopentyl]urea], the remaining activity at 37.5 µM in assay [1] was 44%. Besides, the pIC50 in assay [2] was 8.46.

With `O=C1CCc2ccc(NC(=O)N[C@@H]3CC[C@H](c4ccccc4)C3)cc2N1` [Example 5, 1-(2-oxo-1,2,3,4-tetrahydroquinolin-7-yl)-3-[(1R,3S)-3-phenylcyclopentyl]urea], the remaining activity at 37.5 µM in assay [1] worked out at 81%. For the same compound, the negative logarithm of the IC50 (pIC50) in assay [2] is 7.15.

Regarding `O=C(Nc1cccc2[nH]ncc12)N[C@@H]1CC[C@@H](c2ccc(C(F)(F)F)cc2)C1` [Example 44, 1-(1H-indazol-4-yl)-3-{(1R,3R)-3-[4-(trifluoromethyl)phenyl]cyclopentyl}urea], the remaining activity at 37.5 µM in assay [1] is 13%. For the same compound, the pIC50 in assay [2] is 6.77.

For the compound `CN1C(=O)CCc2ccc(NC(=O)N[C@@H]3CC[C@@H](c4cccc(F)c4)C3)cc21` [Example 107, 1-[(1R,3R)-3-(3-fluorophenyl)cyclopentyl]-3-(1-methyl-2-oxo-1,2,3,4-tetrahydroquinolin-7-yl)urea], the remaining activity at 37.5 µM in assay [1] came to 77%. For the same compound, in assay [2], the pIC50 was under 4.43.

Regarding `O=C(Nc1cccc2[nH]ncc12)N[C@H]1C[C@@H](c2ccccc2)[C@@H](O)[C@H]1O` [Example 52, 1-((1S,2S,3R,4S)-2,3-dihydroxy-4-phenylcyclopentyl)-3-(1H-indazol-4-yl)urea], in assay [1], the remaining activity at 37.5 µM was 67%. Further, the pIC50 in assay [2] was 4.65.

In the case of `O=C(Nc1cccc2c1C[C@@H](O)C2)N[C@H]1CC[C@@H](c2cccc(F)c2)C1` [Example 87, 1-[(1S,3R)-3-(3-fluorophenyl)cyclopentyl]-3-[(2S)-2-hydroxy-2,3-dihydro-1H-inden-4-yl]urea], the remaining activity at 37.5 µM in assay [1] was 17%. Moreover, the pIC50 in assay [2] is 6.61.

For `O=C(Nc1cccc2c1C[C@H](O)C2)N[C@H]1CC[C@@H](c2ccccc2)C1` [Example 22, 1-[(2R)-2-hydroxy-2,3-dihydro-1H-inden-4-yl]-3-[(1S,3R)-3-phenylcyclopentyl]urea], the remaining activity at 37.5 µM in assay [1] was 41%. For the same compound, the pIC50 in assay [2] was 6.54.

Turning to `O=C(Nc1cccc2c1C[C@H](O)CC2)N[C@@H]1CC[C@H](c2ccccc2)C1` [Compound G, 1-[(7R)-7-hydroxy-5,6,7,8-tetrahydronaphthalen-1-yl]-3-[(1R,3S)-3-phenylcyclopentyl]urea, reference compound], the remaining activity at 37.5 µM in assay [1] worked out at 2%. In assay [2], the negative-log IC50 (pIC50) was 8.40.

For `Cn1ncc2c(NC(=O)N[C@@H]3CC[C@@H](c4cccc(F)c4)C3)cccc21` [Example 101, 1-[(1R,3R)-3-(3-fluorophenyl)cyclopentyl]-3-(1-methyl-420-1-21H-indazol-4-yl)urea], the “hTRPV1 H+ (max % remain)” value in assay [1] was 4%. The negative-log IC50 (pIC50) in assay [2] is 7.60.

Regarding `CN1C(=O)CCc2ccc(NC(=O)N[C@H]3CC[C@@H](c4cccc(F)c4)C3)cc21` [Example 108, 1-[(1S,3R)-3-(3-fluorophenyl)cyclopentyl]-3-(1-methyl-2-oxo-1,2,3,4-tetrahydroquinolin-7-yl)urea], the remaining activity at 37.5 µM in assay [1] amounted to 88%. Further, in assay [2], the pIC50 was 6.09.

For the origin of these results see patent US8802711B2, “TRPV1 antagonists” (AbbVie Inc., priority 2011, dated 2014).
